Reference: patent US12357636B2 (Urovant Sciences GmbH, priority 2018, dated 2025)

Test system: patients with OAB
Experiment: Phase 2b study: cardiovascular safety, orthostatic AEs, blood pressure and heart rate changes (Table 17)
Type: in vivo, human
Conditions: for DBP Change from Baseline [≥] 5 mm Hg, n/N (%) / DBP Change from Baseline [≥] 10 mm Hg, n/N (%) / DBP Change from Baseline ≥15 mm Hg, n/N (%) / HR Change from Baseline [≥] 10 bpm, n/N (%) / HR Change from Baseline ≥5 bpm, n/N (%) / HR Change from Baseline ≥15 bpm, n/N (%) / SBP Change from Baseline [≥] 5 mm Hg, n/N (%) / SBP Change from Baseline [≥] 10 mm Hg, n/N (%) / SBP Change from Baseline ≥15 mm Hg, n/N (%): counts based on 3 consecutive post-baseline visits; for DBP Change from Baseline, Mean (95% CI) Max / HR Change from Baseline, Mean (95% CI) Maximum / SBP Change from Baseline, Mean (95% CI) Maximum: mean maximum from week 1 to 8
Description: None led to discontinuation. The overall incidence of orthostatic symptoms was low.
Small differences in the percent of subjects exceeding categorical heart rate and blood pressure thresholds for vibegron were similar to those in the tolterodine arm.

Structure (SMILES): O=C(Nc1ccc(C[C@@H]2CC[C@H]([C@H](O)c3ccccc3)N2)cc1)[C@@H]1CCc2nccc(=O)n21 [Vibegron, (6S)—N-[4-[[(2S,5R)-5-[(R)-hydroxy(phenyl)methyl]pyrrolidin-2-yl]methyl]phenyl]-4-oxo-7,8-dihydro-6H-pyrrolo[1,2-a]pyrimidine-6-carboxamide]
- SBP and DBP mean changes at Week 1 and mean maximum changes over 8 weeks, difference between placebo and vibegron (50 mg and 100 mg): < 1 mm Hg
- subjects with a change from baseline in DBP>15 mmHg (100 mg): 1.3%
- HR mean maximum changes over 8 weeks, compared to placebo (in vivo): < 2 bpm
- DBP Change from Baseline [≥] 5 mm Hg, n/N (%) (vibegron 3 mg): 14/140 (10.0) %
- DBP Change from Baseline [≥] 10 mm Hg, n/N (%) (vibegron 3 mg): 3/140 (2.1) %
- DBP Change from Baseline ≥15 mm Hg, n/N (%) (vibegron 3 mg): 1/140 (0.7) %
- HR Change from Baseline [≥] 10 bpm, n/N (%) (vibegron 3 mg): 5/140 (3.6) %
- HR Change from Baseline ≥5 bpm, n/N (%) (vibegron 3 mg): 16/140 (11.4) %
- HR Change from Baseline ≥15 bpm, n/N (%) (vibegron 3 mg): 1/140 (0.7) %
- SBP Change from Baseline [≥] 5 mm Hg, n/N (%) (vibegron 3 mg): 21/140 (15.0) %
- SBP Change from Baseline [≥] 10 mm Hg, n/N (%) (vibegron 3 mg): 10/140 (7.1) %
- SBP Change from Baseline ≥15 mm Hg, n/N (%) (vibegron 3 mg): 4/140 (2.9) %
- DBP Change from Baseline, Mean (95% CI) Max (vibegron 3 mg): 5.03 (3.92, 6.15) mm Hg
- HR Change from Baseline, Mean (95% CI) Maximum (vibegron 3 mg): 5.57 (4.25, 6.90) bpm
- SBP Change from Baseline, Mean (95% CI) Maximum (vibegron 3 mg): 7.14 (5.18, 9.10) mm Hg
- DBP Change from Baseline, Mean (95% CI) (week 1) (vibegron 3 mg): −0.37 (−1.69, 0.95) mm Hg
- HR Change from Baseline, Mean (95% CI) (week 1) (vibegron 3 mg): 0.36 (−0.90, 1.62) bpm
- SBP Change from Baseline, Mean (95% CI) (week 1) (vibegron 3 mg): −0.35 (−2.34, 1.65) mm Hg
- subjects with orthostatic related AEs (vibegron 15 mg group): 0.3%
- DBP Change from Baseline [≥] 5 mm Hg, n/N (%) (vibegron 15 mg): 15/132 (11.4) %
- DBP Change from Baseline [≥] 10 mm Hg, n/N (%) (vibegron 15 mg): 3/132 (2.3) %
- DBP Change from Baseline ≥15 mm Hg, n/N (%) (vibegron 15 mg): 1/132 (0.8) %
- HR Change from Baseline [≥] 10 bpm, n/N (%) (vibegron 15 mg): 4/132 (3.0) %
- HR Change from Baseline ≥5 bpm, n/N (%) (vibegron 15 mg): 17/132 (12.9) %
- HR Change from Baseline ≥15 bpm, n/N (%) (vibegron 15 mg): 1/132 (0.8) %
- SBP Change from Baseline [≥] 5 mm Hg, n/N (%) (vibegron 15 mg): 22/132 (16.7) %
- SBP Change from Baseline [≥] 10 mm Hg, n/N (%) (vibegron 15 mg): 9/132 (6.8) %
- SBP Change from Baseline ≥15 mm Hg, n/N (%) (vibegron 15 mg): 1/132 (0.8) %
- DBP Change from Baseline, Mean (95% CI) Max (vibegron 15 mg): 6.37 (5.20, 7.53) mm Hg
- HR Change from Baseline, Mean (95% CI) Maximum (vibegron 15 mg): 6.56 (5.20, 7.92) bpm
- SBP Change from Baseline, Mean (95% CI) Maximum (vibegron 15 mg): 8.93 (7.18, 10.67) mm Hg
- DBP Change from Baseline, Mean (95% CI) (week 1) (vibegron 15 mg): 0.03 (−1.52, 1.59) mm Hg
- HR Change from Baseline, Mean (95% CI) (week 1) (vibegron 15 mg): 0.35 (−1.15, 1.85) bpm
- SBP Change from Baseline, Mean (95% CI) (week 1) (vibegron 15 mg): −0.34 (−2.46, 1.78) mm Hg
- DBP Change from Baseline [≥] 5 mm Hg, n/N (%) (vibegron 50 mg): 11/144 (7.6) %
- DBP Change from Baseline [≥] 10 mm Hg, n/N (%) (vibegron 50 mg): 5/144 (3.5) %
- DBP Change from Baseline ≥15 mm Hg, n/N (%) (vibegron 50 mg): 1/144 (0.7) %
- HR Change from Baseline [≥] 10 bpm, n/N (%) (vibegron 50 mg): 4/144 (2.8) %
- HR Change from Baseline ≥5 bpm, n/N (%) (vibegron 50 mg): 12/144 (8.3) %
- HR Change from Baseline ≥15 bpm, n/N (%) (vibegron 50 mg): 1/144 (0.7) %
- SBP Change from Baseline [≥] 5 mm Hg, n/N (%) (vibegron 50 mg): 24/144 (16.7) %
- SBP Change from Baseline [≥] 10 mm Hg, n/N (%) (vibegron 50 mg): 14/144 (9.7) %
- SBP Change from Baseline ≥15 mm Hg, n/N (%) (vibegron 50 mg): 3/144 (2.1) %
- DBP Change from Baseline, Mean (95% CI) Max (vibegron 50 mg): 4.19 (3.10, 5.29) mm Hg
- HR Change from Baseline, Mean (95% CI) Maximum (vibegron 50 mg): 5.49 (4.28, 6.69) bpm
- SBP Change from Baseline, Mean (95% CI) Maximum (vibegron 50 mg): 7.01 (5.31, 8.70) mm Hg
- DBP Change from Baseline, Mean (95% CI) (week 1) (vibegron 50 mg): −0.70 (−2.07, 0.67) mm Hg
- HR Change from Baseline, Mean (95% CI) (week 1) (vibegron 50 mg): 0.29 (−0.88, 1.46) bpm
- SBP Change from Baseline, Mean (95% CI) (week 1) (vibegron 50 mg): −0.79 (−2.65, 1.08) mm Hg
- subjects with orthostatic related AEs (vibegron 100 mg group): 1.1%
- DBP Change from Baseline [≥] 5 mm Hg, n/N (%) (vibegron 100 mg): 31/237 (13.1) %
- DBP Change from Baseline [≥] 10 mm Hg, n/N (%) (vibegron 100 mg): 8/237 (3.4) %
- DBP Change from Baseline ≥15 mm Hg, n/N (%) (vibegron 100 mg): 3/237 (1.3) %
- HR Change from Baseline [≥] 10 bpm, n/N (%) (vibegron 100 mg): 7/237 (3.0) %
- HR Change from Baseline ≥5 bpm, n/N (%) (vibegron 100 mg): 28/237 (11.8) %
- HR Change from Baseline ≥15 bpm, n/N (%) (vibegron 100 mg): 1/237 (0.4) %
- SBP Change from Baseline [≥] 5 mm Hg, n/N (%) (vibegron 100 mg): 28/237 (11.8) %
- SBP Change from Baseline [≥] 10 mm Hg, n/N (%) (vibegron 100 mg): 10/237 (4.2) %
- SBP Change from Baseline ≥15 mm Hg, n/N (%) (vibegron 100 mg): 3/237 (1.3) %
- DBP Change from Baseline, Mean (95% CI) Max (vibegron 100 mg): 4.80 (3.88, 5.72) mm Hg
- HR Change from Baseline, Mean (95% CI) Maximum (vibegron 100 mg): 6.12 (5.10, 7.15) bpm
- SBP Change from Baseline, Mean (95% CI) Maximum (vibegron 100 mg): 6.51 (5.09, 7.93) mm Hg
- DBP Change from Baseline, Mean (95% CI) (week 1) (vibegron 100 mg): −0.69 (−1.72, 0.34) mm Hg
- HR Change from Baseline, Mean (95% CI) (week 1) (vibegron 100 mg): 0.35 (−0.69, 1.38) bpm
- SBP Change from Baseline, Mean (95% CI) (week 1) (vibegron 100 mg): −0.77 (−2.22, 0.68) mm Hg
